Where two headings read alike, the source gives them in different places.
How the values were obtained:
Assay in all cases: microbe, parasite or virus in culture
Assay type in all cases: cell-based, Hepatitis C virus (HCV)
Conditions in all cases: Replicon Assay A
HCV replicon 1A = test system: HCV replicon 1A
Procedure, shortened: (§1)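 Read-out is replicon RNA per cell by real-time RT-PCR, normalised to cyclophilin mRNA amplified in the same well. Cells were exposed to compound for 3 days at 2000 cells/well in medium with 5% fetal bovine serum and 0.5% DMSO.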

HCV replicon 2B = test system: HCV replicon 2B
Procedure, shortened: as §1

HCV replicon 1AY93H = test system: HCV replicon 1AY93H
Procedure, shortened: as §1

[1] = read-out: 1A Y93H IC50, replicon 1AY93H
[2] = Hepatitis C virus, read-out: 2B IC50 (nM), replicon 2B
[3] = Hepatitis C virus, read-out: 1A Y93H IC50 (nM), replicon 1AY93H
[4] = read-out: 2B IC50, HCV replicon 2B
[5] = read-out: 1A Y93H IC50, HCV replicon 1A Y93H
[6] = Hepatitis C virus, HCV replicon 1A

## COC(=O)NC(C(=O)N1CCC[C@H]1c1ncc(-c2ccc3c(c2)cc2n3C(c3cc4nccnc4s3)Oc3cc(-c4cnc([C@@H]5CCCN5C(=O)[C@@H](NC(=O)OC)C(C)C)[nH]4)cc(F)c3-2)[nH]1)C1C[C@@H](C)O[C@@H](C)C1 (single isomer, unassigned) [Compound 371]
HCV replicon 1A; Hepatitis C virus, replicon 1A
  IC50: 0.0042 nM
HCV replicon 2B; read-out: 2B IC50, replicon 2B
  IC50: 0.0627 nM
HCV replicon 1AY93H; [1]
  IC50: 0.553 nM

## COC(=O)NC(C(=O)N1CCCC1c1ncc(-c2cc(F)c3c(c2)OC(c2ccc(C4CCC4)s2)n2c-3cc3cc(-c4cnc(C5CCCN5C(=O)C(NC(=O)OC)C5CC(C)OC(C)C5)[nH]4)ccc32)[nH]1)C(C)C (single isomer, unassigned) [Compound 373]
HCV replicon 1A; replicon 1A
  IC50: 0.001 nM
HCV replicon 2B; replicon 2B, read-out: 2B IC50
  IC50: 0.156 nM
HCV replicon 1AY93H; replicon 1AY93H, read-out: 1A Y93H IC50
  IC50: 0.248 nM

## COC(=O)N[C@@H](Cc1ccccc1)C(=O)N1CCC[C@H]1c1ncc(-c2ccc3c(c2)OC(c2ccc(-c4ccc(NC(=O)CCCC[C@@H]5SC[C@@H]6NC(=O)N[C@@H]65)cc4)s2)n2c-3cc3cc(-c4cnc([C@@H]5CCCN5C(=O)[C@H](Cc5ccccc5)NC(=O)OC)[nH]4)ccc32)[nH]1 (single isomer, unassigned) [Compound 383]
HCV replicon 1A; replicon 1A
  IC50: 0.0367 nM
HCV replicon 2B; read-out: 2B IC50, replicon 2B
  IC50: 8.74 nM
HCV replicon 1AY93H; [1]
  IC50: 6.34 nM

## COC(=O)N[C@@H](Cc1ccccc1)C(=O)N1CCC[C@H]1c1ncc(-c2ccc3c(c2)OC(c2ccc(-c4ccc(NC(=O)CCCC[C@@H]5SC[C@@H]6NC(=O)N[C@@H]65)cc4)s2)n2c-3cc3cc(-c4cnc([C@@H]5CCCN5C(=O)[C@H](Cc5ccccc5)NC(=O)OC)[nH]4)ccc32)[nH]1 (single isomer, unassigned) [Compound 385]
HCV replicon 1A; replicon 1A
  IC50: 0.109 nM
HCV replicon 2B; read-out: 2B IC50, replicon 2B
  IC50: 7.21 nM
HCV replicon 1AY93H; [1]
  IC50: 3.11 nM

## COC(=O)N[C@H](C(=O)N1CCC[C@H]1c1ncc(-c2cc(F)c3c(c2)OC(c2ccc(CC4CC4)s2)n2c-3cc3cc(-c4cnc([C@@H]5C[C@H]6C[C@H]6N5C(=O)[C@@H](NC(=O)OC)C(C)C)[nH]4)ccc32)[nH]1)C(C)C (single isomer, unassigned) [Compound 390]
HCV replicon 1A; replicon 1A
  IC50: 0.003 nM
HCV replicon 2B; read-out: 2B IC50, replicon 2B
  IC50: 0.754 nM
HCV replicon 1AY93H; [1]
  IC50: 0.314 nM

## COC(=O)N[C@H](C(=O)N1CCC[C@H]1c1ncc(-c2cc(F)c3c(c2)OC(c2cc4c(s2)C(C)(C)CC4)n2c-3cc3cc(-c4cnc([C@@H]5CCCN5C(=O)[C@@H](NC(=O)OC)C(C)C)[nH]4)ccc32)[nH]1)C(C)C (single isomer, unassigned) [Compound 392]
HCV replicon 1A; replicon 1A
  IC50: 0.0038 nM
HCV replicon 2B; [2]
  IC50: 0.373 nM
HCV replicon 1AY93H; [3]
  IC50: 0.0514 nM

## COC(=O)N[C@H](C(=O)N1CCC[C@H]1c1ncc(-c2cc(F)c3c(c2)OC(c2cc4c(s2)CCC(C)(C)O4)n2c-3cc3cc(-c4cnc([C@@H]5CCCN5C(=O)[C@@H](NC(=O)OC)C(C)C)[nH]4)ccc32)[nH]1)C(C)C (single isomer, unassigned) [Compound 398]
HCV replicon 1A; replicon 1A
  IC50: 0.0015 nM
HCV replicon 2B; read-out: 2B IC50, replicon 2B
  IC50: 0.494 nM
HCV replicon 1AY93H; [1]
  IC50: 0.955 nM

## COCC(C)(C)c1ccc(C2Oc3cc(-c4cnc([C@@H]5CCCN5C(=O)[C@@H](NC(=O)OC)C(C)C)[nH]4)cc(F)c3-c3cc4cc(-c5cnc([C@@H]6CCCN6C(=O)[C@@H](NC(=O)OC)C(C)C)[nH]5)ccc4n32)s1 (single isomer, unassigned) [Compound 400]
HCV replicon 1A; replicon 1A
  IC50: 0.0017 nM
HCV replicon 2B; read-out: 2B IC50, replicon 2B
  IC50: 1.69 nM
HCV replicon 1AY93H; [1]
  IC50: 0.151 nM

## COC(=O)NC(C(=O)N1CCC[C@H]1c1ncc(-c2ccc3c(c2)cc2n3C(c3ccc(C4CC4)s3)Oc3cc(-c4cnc([C@@H]5CCCN5C(=O)[C@@H](NC(=O)OC)C(C)C)[nH]4)cc(F)c3-2)[nH]1)C1C[C@H](C)O[C@@H](C)C1 (single isomer, unassigned) [Compound 404]
HCV replicon 1A; replicon 1A
  IC50: 0.0022 nM
HCV replicon 2B; read-out: 2B IC50, replicon 2B
  IC50: 1.67 nM
HCV replicon 1AY93H; [1]
  IC50: 1.25 nM

## COC(=O)NC(C(=O)N1CCC[C@H]1c1ncc(-c2ccc3c(c2)cc2n3C(c3cc4c(s3)CCC4)Oc3cc(-c4cnc([C@@H]5CCCN5C(=O)[C@@H](NC(=O)OC)C(C)C)[nH]4)cc(F)c3-2)[nH]1)C1CCOC(C)(C)C1 (single isomer, unassigned) [Compound 405]
HCV replicon 1A; Hepatitis C virus, replicon 1A
  IC50: 0.0023 nM
HCV replicon 2B; [2]
  IC50: 0.0042 nM
HCV replicon 1AY93H; [3]
  IC50: 0.0133 nM

## COC(=O)N[C@H](C(=O)N1CCC[C@H]1c1ncc(-c2cc(F)c3c(c2)OC(c2cc4c(s2)CCCO4)n2c-3cc3cc(-c4cnc([C@@H]5CCCN5C(=O)[C@@H](NC(=O)OC)C5CCOC(C)(C)C5)[nH]4)ccc32)[nH]1)C(C)C (single isomer, unassigned) [Compound 411]
HCV replicon 1A; HCV replicon 1A
  IC50: 0.001 nM
HCV replicon 2B; [4]
  IC50: 0.2 nM
HCV replicon 1AY93H; [5]
  IC50: 0.78 nM

## COC(=O)N[C@H](C(=O)N1CCC[C@H]1c1ncc(-c2cc(F)c3c(c2)OC(c2cc4c(s2)CCCO4)n2c-3cc3cc(-c4cnc([C@@H]5CCCN5C(=O)[C@@H](NC(=O)OC)C5CCOC(C)(C)C5)[nH]4)ccc32)[nH]1)C(C)C (single isomer, unassigned) [Compound 412]
HCV replicon 1A; HCV replicon 1A
  IC50: 0.0094 nM
HCV replicon 2B; [4]
  IC50: 0.005 nM
HCV replicon 1AY93H; [5]
  IC50: 0.008 nM

## COC(=O)NC(C(=O)N1[C@@H]2C[C@@H]2C[C@H]1c1ncc(-c2ccc3c(c2)cc2n3C(c3ccc(C(F)F)s3)Oc3cc(-c4cnc([C@@H]5CCCN5C(=O)[C@@H](NC(=O)OC)C(C)C)[nH]4)cc(F)c3-2)[nH]1)C1CCOC(C)(C)C1 (single isomer, unassigned) [Compound 414]
HCV replicon 1A; [6]
  IC50: 0.0022 nM
HCV replicon 2B; [4]
  IC50: 0.457 nM
HCV replicon 1AY93H; [5]
  IC50: 0.134 nM

## COC(=O)NC(C(=O)N1CCC[C@H]1c1ncc(-c2ccc3c(c2)cc2n3C(c3ccc(C4CC4)s3)Oc3cc(-c4cnc([C@@H]5CCCN5C(=O)[C@@H](NC(=O)OC)C(C)C)[nH]4)cc(F)c3-2)[nH]1)C1CC(C)(C)OC(C)(C)C1 (single isomer, unassigned) [Compound 420]
HCV replicon 1A; [6]
  IC50: 0.0029 nM
HCV replicon 2B; [4]
  IC50: 6.03 nM
HCV replicon 1AY93H; [5]
  IC50: 3.13 nM

## COC(=O)NC(C(=O)N1[C@@H]2C[C@@H]2C[C@H]1c1ncc(-c2ccc3c(c2)c(F)c2n3C(c3ccc(C4CC4)s3)Oc3cc(-c4cnc([C@@H]5CCCN5C(=O)[C@@H](NC(=O)OC)C(C)C)[nH]4)cc(F)c3-2)[nH]1)C1CCOC(C)(C)C1 (single isomer, unassigned) [Compound 422]
HCV replicon 1A; [6]
  IC50: 0.0023 nM
HCV replicon 2B; [4]
  IC50: 0.138 nM
HCV replicon 1AY93H; [5]
  IC50: 0.107 nM

## COC(=O)NC(C(=O)N1[C@@H]2C[C@@H]2C[C@H]1c1ncc(-c2ccc3c(c2)c(F)c2n3C(c3ccc(C4CC4)s3)Oc3cc(-c4cnc([C@@H]5CCCN5C(=O)[C@@H](NC(=O)OC)C(C)C)[nH]4)cc(F)c3-2)[nH]1)C1CCOC(C)(C)C1 (single isomer, unassigned) [Compound 423]
HCV replicon 1A; HCV replicon 1A
  IC50: 0.0021 nM
HCV replicon 2B; [4]
  IC50: 0.0096 nM
HCV replicon 1AY93H; [5]
  IC50: 0.0042 nM

## COC(=O)N[C@H](C(=O)N1CCC[C@H]1c1ncc(-c2ccc3c(c2)OC(c2cc(C)c(C)s2)n2c-3cc3cc(-c4cnc([C@@H]5C[C@H]6C[C@H]6N5C(=O)[C@@H](NC(=O)OC)C(C)C)[nH]4)ccc32)[nH]1)C(C)C (single isomer, unassigned) [Compound 501]
HCV replicon 1A; HCV replicon 1A
  IC50: 0.024 nM
HCV replicon 2B; [4]
  IC50: 8.37 nM
HCV replicon 1AY93H; [5]
  IC50: 4.35 nM

## COC(=O)N[C@H](C(=O)N1CCC[C@H]1c1ncc(-c2ccc3c(c2)OC(c2cc(C)c(C)s2)n2c-3cc3cc(-c4cnc([C@@H]5C[C@H]6C[C@H]6N5C(=O)[C@@H](NC(=O)OC)C(C)C)[nH]4)ccc32)[nH]1)C(C)C (single isomer, unassigned) [Compound 502]
HCV replicon 1A; HCV replicon 1A
  IC50: 0.0121 nM
HCV replicon 2B; [4]
  IC50: 0.0575 nM
HCV replicon 1AY93H; [5]
  IC50: 0.575 nM

## COC(=O)N[C@H](C(=O)N1CCC[C@H]1c1ncc(-c2ccc3c(c2)OC(c2cc(C)c(C)s2)n2c-3cc3cc(-c4cnc([C@@H]5C[C@H]6C[C@H]6N5C(=O)[C@@H](NC(=O)OC)C(C)C)[nH]4)ccc32)[nH]1)C(C)C (single isomer, unassigned) [Compound 503]
HCV replicon 1A; HCV replicon 1A
  IC50: 0.0676 nM
HCV replicon 2B; [4]
  IC50: 7.51 nM
HCV replicon 1AY93H; [5]
  IC50: 1.76 nM

## COC(=O)N[C@H](C(=O)N1CCC[C@H]1c1ncc(-c2cc(F)c3c(c2)OC(c2cc(C)c(C)s2)n2c-3cc3cc(-c4cnc([C@@H]5C[C@H]6C[C@H]6N5C(=O)[C@@H](NC(=O)OC)C(C)C)[nH]4)ccc32)[nH]1)C(C)C (single isomer, unassigned) [Compound 508]
HCV replicon 1A; [6]
  IC50: 0.0409 nM
HCV replicon 2B; [4]
  IC50: 7.09 nM
HCV replicon 1AY93H; [5]
  IC50: 0.608 nM

## COCc1ccc(C2Oc3cc(-c4cnc([C@@H]5CCCN5C(=O)[C@@H](NC(=O)OC)C(C)C)[nH]4)cc(F)c3-c3cc4cc(-c5c[nH]c([C@@H]6CCCN6C(=O)[C@@H](NC(=O)OC)C(C)C)n5)ccc4n32)s1 (single isomer, unassigned) [Compound 511]
HCV replicon 1A; [6]
  IC50: 0.00238 nM
HCV replicon 2B; [4]
  IC50: 1.83 nM
HCV replicon 1AY93H; [5]
  IC50: 0.401 nM

## COC(=O)N[C@H](C(=O)N1CCC[C@H]1c1ncc(-c2cc(F)c3c(c2)OC(c2cc(C)c(C)s2)n2c-3cc3cc(-c4cnc([C@@H]5C[C@@H](F)CN5C(=O)[C@@H](NC(=O)OC)C(C)C)[nH]4)ccc32)[nH]1)C(C)C (single isomer, unassigned) [Compound 514]
HCV replicon 1A; HCV replicon 1A
  IC50: 0.0474 nM
HCV replicon 2B; [4]
  IC50: 48.5 nM
HCV replicon 1AY93H; [5]
  IC50: 0.272 nM

Source: US20160257697A1, “THIOPHENE-SUBSTITUTED TETRACYCLIC COMPOUNDS AND METHODS OFUSE THEREOF FOR THE TREATMENT OF VIRAL DISEASES” (priority 2013, published 2016)
